# Assay results from patent US12527835B2, “Brevican-binding peptides for brain tumor imaging” (The Brigham and Women's Hospital, Inc., priority 2018, dated 2026).
# Where a SMILES comes first, the peptide text is derived from it. [ ]: non-standard residue; d: D form.
# Key:
# [1] = tested on: HEK-Bcan cells; experiment: Flow cytometry blocking study with 50× molar excess of unlabeled peptide; assay type: cell-based, human; settings: fluorescein-conjugated peptide 1 μM
# Experimental: Cells were washed once with PBS and then, treated with 1 mL of 2.5 mM EDTA to dissociate the cells. The EDTA was removed by centrifugation, and PBS supplemented with 10% FBS was added to create a single-cell suspension. All peptide stocks were dissolved in DMSO, and stored at −20° C. in the dark. Cells were incubated with each peptide (at the desired final concentration, between 1-10 μM) for 3 hrs at 37° C. in the dark under constant rotation. After incubation, cells were washed 3× with PBS with 10% FBS (by centrifugation at 7000 rpm for 3 mins each). Then, cells were resuspended in 3.7% formaldehyde for fixation, and finally washed once with PBS. Cells were evaluated for peptide uptake (mean fluorescence intensity) by flow cytometry (10,000-20,000 events).
# For blocking studies, cells were dissociated as described above and resuspended in cold PBS with 10% FBS. Cells were then incubated with a 50× molar excess of unlabeled peptide for 10 mins on ice, before adding the corresponding FITC-labeled peptide at a final concentration of 1 μM and incubated for 1.5 hrs on ice. Cells were then washed with cold PBS with 10% FBS, fixed and analyzed by flow cytometry.
# [2] = target: T1, recombinant BΔg protein (deglycosylated brevican) (Homo sapiens, UniProt Q96GW7); experiment: Octet steady state binding affinity to recombinant BΔg; settings: steady state analysis, Octet RED, peptide up to 10 μM; read-out: KD (dissociation constant) to BΔg protein
# T1 construct: purchased R&D Systems 4009-BC-050
# T1 sequence (Q96GW7 23-911): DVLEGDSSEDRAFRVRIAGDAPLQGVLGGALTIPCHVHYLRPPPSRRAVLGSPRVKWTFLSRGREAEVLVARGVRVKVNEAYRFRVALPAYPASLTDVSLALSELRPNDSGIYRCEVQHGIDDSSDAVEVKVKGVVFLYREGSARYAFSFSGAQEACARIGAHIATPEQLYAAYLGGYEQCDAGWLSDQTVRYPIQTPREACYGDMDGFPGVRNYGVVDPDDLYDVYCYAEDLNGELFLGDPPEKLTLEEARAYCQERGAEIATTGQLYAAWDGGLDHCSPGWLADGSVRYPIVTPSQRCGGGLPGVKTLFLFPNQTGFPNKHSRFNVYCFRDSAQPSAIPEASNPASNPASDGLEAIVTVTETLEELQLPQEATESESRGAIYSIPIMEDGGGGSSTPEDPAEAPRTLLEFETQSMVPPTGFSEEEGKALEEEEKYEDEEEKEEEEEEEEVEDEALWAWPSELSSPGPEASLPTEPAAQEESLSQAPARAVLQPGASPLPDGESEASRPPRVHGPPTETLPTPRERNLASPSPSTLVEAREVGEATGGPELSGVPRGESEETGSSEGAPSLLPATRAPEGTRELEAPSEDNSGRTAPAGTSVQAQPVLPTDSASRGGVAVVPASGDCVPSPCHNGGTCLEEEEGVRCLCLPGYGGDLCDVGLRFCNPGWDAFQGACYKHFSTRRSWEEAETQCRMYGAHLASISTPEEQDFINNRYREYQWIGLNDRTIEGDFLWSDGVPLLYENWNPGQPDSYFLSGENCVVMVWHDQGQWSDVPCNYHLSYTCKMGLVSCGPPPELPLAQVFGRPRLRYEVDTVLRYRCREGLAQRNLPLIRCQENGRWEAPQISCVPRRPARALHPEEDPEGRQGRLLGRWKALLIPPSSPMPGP
# Experimental: A ForteBio OctetRed384 instrument was used to study the binding kinetics of each peptide to recombinant human brevican (re-suspended in PBS and 0.1 mM EDTA, pH 6.8). The brevican protein was deglycosylated prior to experimental use in water+0.05% tween, PI, sialidase, 0-glycosidase, N-glycosidase in sodium acetate [200 mM], NaCl [250 mM], Tris-HCl [200 mM], pH 7.5.) in the presence of protease inhibitor overnight at 4° C. (this entire composition will be referred to as ‘de-glycosylation buffer’). […] The final volume for all the solutions was 80 μl/well. Assays were performed at 30° C. in solid black 384-well plates (Geiger Bio-One). Prior to beginning, Ni-NTA biosensors were soaked for 10 min in working buffer. Before loading the protein onto each biosensor, a baseline was established in working buffer for 60 s. Deglycosylated brevican (50 μg/ml BΔg; His-tagged) was loaded on the surface of each biosensors for 180 s. […] Reference biosensors were also included in the plate as internal controls, where biosensors were exposed to the ‘de-glycosylation buffer’ lacking brevican protein during the loading step. A 60 s biosensor washing step was applied. Then, biosensors were exposed to the analyte (peptide) in working buffer (ranging between 0-10 μM BTP) for 300 s during the ‘association’ step. Finally, the biosensors were exposed to working buffer (without peptide) during the ‘dissociation’ step for 600 s. Binding affinity of each peptide was assessed through steady state analysis, where the response unit was plotted over peptide concentration. All data was plotted and curves were fitted using the non-linear ‘one-site specific binding’ fit, and the dissociation constant (KD) value was calculated using the GraphPad Prism software.
# Binding kinetics analyses were performed using the Octet RED platform (Forte Bio) to measure the binding affinity of BTP-7, 8 and 9 to purified recombinant BΔg protein.
# [3] = target: T2, BΔg-derived peptide (a.a. 535-548 of BΔg) (Homo sapiens, UniProt Q96GW7); experiment: Circular dichroism of peptide mixed with BΔg-derived peptide; assay type: binding; settings: CD spectrometry, 50 μM each peptide
# T2 construct: purchased GenScript USA Inc; host or cells: chemical synthesis
# Experimental: (§1) The BΔg peptide (or control BΔg(Scramble) peptide), BTP-7-FITC peptide, or a mixture of both (dissolved in Milli-Q H2O to a final concentration of 50 μM for each peptide) was loaded into a quartz cuvette (1 mm pathlength; Hellma Analytics Catalog #110-1-40). The cuvette was inserted into the Jasco J-815 circular dichroism spectropolarimeter, and the spectral scan measurement was conducted using the Spectrum Manager 2 software. The cuvette was rinsed with Milli-Q H2O in between each run. A blank (water) was run to establish the baseline for all samples. Scans were measured from 190 nm to 260 nm in a continuous mode (50-100 nm/min) at 20° C. To measure the BTP-7 structural change in the presence of either the BΔg (or control scramble) peptide, spectrum of the BΔg (or scramble) peptide alone was subtracted from the spectrum of the mixture, and then overlaid with the spectrum of BTP-7 alone for comparison. To investigate the structural changes in BTP-7 in a dose-dependent manner, 50 μM of BTP-7 peptide was loaded together with varying concentrations of either the BΔg (or control scramble) peptide. Similarly, the spectrum of each BΔg (or control scramble) peptide at the concentration was subtracted from the spectrum of the corresponding mixture, and then overlaid with the spectrum of BTP-7 alone for comparison.
# [4] = tested on: BΔg-derived peptide (a.a. 535-548 of BΔg); experiment: as above; assay type: binding, human; settings: CD spectrometry, control peptide
# Experimental: as §1
smiles,measurement,setting,value
CC[C@@H](C)[C@@H](NC(=O)[C@H](N)[C@H](C)O)C(=O)N[C@H](CCCNC(=N)N)C(=O)N[C@H](CCCCN)C(=O)N[C@H](CC(C)C)C(=O)N[C@@H](C(=O)N[C@H](CCCNC(=N)N)C(=O)N[C@H](Cc1c[nH]cn1)C(N)=O)C(C)C [BTP-8] (H-[dT][dI][dR][dK][dL][dV][dR][dH]-NH2; N-terminus and C-terminus assumed),uptake in HEK-Bcan cells in the presence of the blocking peptide,[1],reduced uptake
same,Kd,[2],1570 nM
same,peptide conformation in the presence of the BΔg-derived peptide,[3],unaffected
same,peptide conformation in the presence of the scramble(BΔg) peptide,[4],unaffected
